# Measurements: patent US10034939B2, “Synergistic combination of immunologic inhibitors for the treatment of cancer” (The University of Chicago, priority 2012, dated 2018)
# Where two headings read alike, the source gives them in different places.
# Tests used:
# [1] = molecular target: Human indoleamine 2,3-dioxygenasae (IDO) (Homo sapiens (Human), UniProt P14902); assay: Human indoleamine 2,3-dioxygenasae (IDO) enzyme assay; type: biochemical
# Excerpt: Human indoleamine 2,3-dioxygenasae (IDO) enzyme assay: Human indoleamine 2,3-dioxygenasae (IDO) with an N-terminal His tag was expressed in E. coli and purified to homogeneity. IDO catalyzes the oxidative cleavage of the pyrrole ring of the indole nucleus of tryptophan to yield N′-formylkynurenine.
# IC50 data are from the IDO enzyme assay described above.
# [2] = system: CD3^+ cells in the peripheral blood; settings: previous studies; cited from earlier work
# [3] = system: CD3^+ cells in the peripheral blood; assay: Depletion of circulating T cells by FTY720 in tumor-bearing mice; type: in vivo; settings: 25 μg FTY-720 oral gavage on day 4, relative to vehicle-treated mice
# Description: Prior to the initiation of the therapy regimens (2.5 h pre-treatment), fingolimod (FTY-720, Enzo Life Sciences) was given to mice to inhibit lymphocyte migration out of lymphoid organs. FTY-720 stock solution (10 mg/ml in DMSO) was diluted to a 125 μg/ml concentration in PBS directly before administration. Mice received a dose of 25 μg FTY-720 or PBS containing DMSO as control via oral gavage. Therapy was initiated the same day (2.5 h delayed) and mice were analyzed on day 7 to perform the ex vivo functional assay as described above.
# To determine whether the presence of CD8^+ T cells showing high levels of IL-2 production and proliferation within the tumor microenvironment following effective immunotherapy doublets was a result of new T cell migration into the tumor site or reactivation of T cells already present, FTY720 treatment was utilized to block the sphingosine 1-phosphate receptor-1 and thereby prohibit T cells from exiting lymphoid organs. Previous studies have shown that the effect can be detected as soon as 2 h after initial administration and is stable for up to 4 days. FTY720 was administered or control vehicle to tumor-bearing mice on day 4, 2.5 h prior to the initiation of immunotherapies. […] Overall, a 90% reduction in circulating CD3^+ T cells in FTY720-treated mice was detected (FIG. 13A). […]
# [4] = system: B16-SIY cells; assay: Tumor growth inhibition (TGI), unaffected fraction synergy analysis of combination therapies; type: in vivo, mice
# Description: Treatment was initiated on day 4 post tumor inoculation with the following regimens for each drug. αCTLA-4 antibody (clone UC10-4F10-11, Bio-X-Cell) was given i.p. on day 4, 7 and 10 at a dose of 100 μg/mouse. αPD-L1 antibody (clone 10F.9G2, Bio-X-Cell) was given i.p. (100 μg/mouse) every other day starting on day 4 ending on day 16 post tumor inoculation. IDOi (INCB23843, Incyte Corporation) was dissolved in 0.5% methylcellulose and administered at 300 mg/kg po QD on a 5 days on/2 days off schedule starting on day 4. In the case of functional experiments with an earlier endpoint, treatment regimens were carried out as described until the day of T cell analysis. A comparison between IDOi and IDOc (INCB24360, Incyte Corporation) was perfomed according to the treatment regime described above. Tumor outgrowth was followed starting day 7 onwards and is depicted in combination with anti-CTLA4 (FIG. 18A) or anti-PD-L1 (FIG. 18B). N=5 mice per group, and a two-way Anova test was used to determine significance between the groups.
# Treatment was administered in the same fashion as described for FIG. 9, with the exception that IDOi (INCB23843) was replaced by IDOc (INCB24360) in the indicated groups. […] Synergy analysis was performed with day 15 data and with day 23 data. Actual tumor growth inhibition (TGI) is the experimental TGI seen in this experiment for the combinations, and predicted TGI is the TGI that would have been expected for a purely additive combination effect from the performance of the individual agents in this experiment. Actual TGIs higher than predicted TGIs reflect better than additive (synergistic) data.
# Human indoleamine 2,3-dioxygenasae (IDO), sequence (P14902 whole entry): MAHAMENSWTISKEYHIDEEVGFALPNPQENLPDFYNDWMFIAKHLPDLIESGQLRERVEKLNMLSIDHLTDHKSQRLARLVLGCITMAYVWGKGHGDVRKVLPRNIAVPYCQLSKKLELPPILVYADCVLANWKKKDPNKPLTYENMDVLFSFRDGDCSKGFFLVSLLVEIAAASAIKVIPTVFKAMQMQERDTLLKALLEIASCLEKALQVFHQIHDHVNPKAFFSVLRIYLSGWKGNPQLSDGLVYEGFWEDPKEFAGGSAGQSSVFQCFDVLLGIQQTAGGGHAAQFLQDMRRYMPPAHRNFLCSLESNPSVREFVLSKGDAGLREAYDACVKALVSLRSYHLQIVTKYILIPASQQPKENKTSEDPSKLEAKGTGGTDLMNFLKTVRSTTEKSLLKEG
structure (smiles),measurement,setting,value
"CS(=O)(=O)NCCCNc1nonc1C(=NO)Nc1cccc(C(F)(F)F)c1 [Example 16, N′-Hydroxy-4-({3-[(methylsulfonyl)amino]propyl}amino)-N-[3-(trifluoromethyl)phenyl]-1,2,5-oxadiazole-3-carboximidamide]",IC50,[1]; read-out: IDO IC50,< 200 nM
"Cc1cc(NC(=NO)c2nonc2NCCNS(C)(=O)=O)ccc1F [Example 17, N-(4-Fluoro-3-methylphenyl)-N′-hydroxy-4-({2-[(methylsulfonyl)amino]ethyl}amino)-1,2,5-oxadiazole-3-carboximidamide]",IC50,[1]; read-out: IDO IC50,< 500 nM
"N#Cc1cc(NC(=NO)c2nonc2NCCNS(N)(=O)=O)ccc1F [Example 18, 4-({2-[(Aminosulfonyl)amino]ethyl}amino)-N-(3-cyano-4-fluorophenyl)-N′-hydroxy-1,2,5-oxadiazole-3-carboximidamide]",IC50,[1]; read-out: IDO IC50,< 750 nM
"CS(=O)(=O)NCCNc1nonc1C(=NO)Nc1ccc(F)c(C#N)c1 [Example 19, N-(3-Cyano-4-fluorophenyl)-N′-hydroxy-4-({2-[(methylsulfonyl)amino]ethyl}amino)-1,2,5-oxadiazole-3-carboximidamide]",IC50,[1]; read-out: IDO IC50,< 500 nM
"NS(=O)(=O)NCCNc1nonc1C(=NO)NCc1cc(Br)co1 [Example 20, 4-({2-[(Aminosulfonyl)amino]ethyl}amino)-N-[(4-bromo-2-furyl)methyl]-N′-hydroxy-1,2,5-oxadiazole-3-carboximidamide]",IC50,[1]; read-out: IDO IC50,< 500 nM
"NS(=O)(=O)NCCNc1nonc1C(=NO)NCc1cc(Cl)co1 [Example 21, 4-({2-[(Aminosulfonyl)amino]ethyl}amino)-N-[(4-chloro-2-furyl)methyl]-N′-hydroxy-1,2,5-oxadiazole-3-carboximidamide]",IC50,[1]; read-out: IDO IC50,< 750 nM
"CN(CCNc1nonc1/C(=N/O)Nc1ccc(F)c(Cl)c1)S(N)(=O)=O [Example 24, 4-(2-[(Aminosulfonyl)(methyl)amino]ethylamino)-N-(3-chloro-4-fluorophenyl)-N′-hydroxy-1,2,5-oxadiazole-3-carboximidamide]",IC50,"[1]; average of five lots, read-out: IC50",132 nM
same,IC50,[1]; read-out: IDO IC50,< 200 nM
"CCCCCCCCc1ccc(CCC(N)(CO)CO)cc1 [FTY720, fingolimod]",time after initial administration at which the effect can be detected,[2],2 h
same,time for which the effect is stable,[2],up to 4 days
same,reduction in circulating CD3^+ T cells,[3],90%
NS(=O)(=O)NCCNc1nonc1/C(=N/O)Nc1ccc(F)c(Br)c1 [IDOc],Actual TGI,"[4]; Day 15 (end of dosing), combination with anti CTLA4",74%
same,Actual TGI,"[4]; Day 15 (end of dosing), combination with antiPDL1",81%
same,Predicted TGI,"[4]; Day 15, combination with anti CTLA4, expected for a purely additive effect from the individual agents",66%
same,Predicted TGI,"[4]; Day 15, combination with antiPDL1, expected for a purely additive effect",24%
same,Actual TGI,"[4]; Day 23 (last day of vehicles), combination with anti CTLA4",93%
same,Actual TGI,"[4]; Day 23 (last day of vehicles), combination with antiPDL1",82%
same,Predicted TGI,"[4]; Day 23, combination with anti CTLA4, expected for a purely additive effect",65%
same,Predicted TGI,"[4]; Day 23, combination with antiPDL1, expected for a purely additive effect",35%
